Data: patent US20080253976A1, “Personal Care Compositions Comprising An Antimicrobial Blend of Essential Oils or Constituents Thereof” (priority 2007, published 2008)
Where two headings read alike, the source gives them in different places.

Key:
METase = METase (Porphyromonas gingivalis, UniProt Q7MX71); assay: Inhibition of bacterial virulence factor METase; assay type: biochemical, P. gingivalis; conditions: read-out: METase % inhibition
Text: (§1) P. gingivalis is a gram-negative anaerobe implicated in periodontal disease in humans and companion animals. P. gingivalis infects the gingival sulcus, producing a number of virulence factors including bacterial enzymes such as gingipains, METase and Cystalysin. Gingipains act on several immune system molecules, including kinogens, complement factors, immunoglobins, resulting in fluid influx into the sulcus, neutrophil recruitment, and bleeding. The ultimate result is a host inflammatory response characterized by cyclooxygenase (COX) induction, metalloproteinase (MMP) expression, prostaglandin elevation and reactive oxygen elevations which result in tissue damage and bone resorption, eventually leading to tooth detachment. MMP's (including various subtypes, e.g., MMP 1, 2, 3, 8, 9, 12, 13), are host extracellular matrix proteases that contribute to tissue destruction and remodeling. COX enzymes catalyze the conversion of arachidonic acid into prostaglandins, which result in vasodilation, redness, puffiness and pain.
(§2) Inhibition of the proteolytic action of gingipains on immuno-regulatory proteins should lead to a reduction in the inflammatory host-response and subsequent tissue damage. Other bacterial enzymes, for example, METase and Cystalysin, are involved in degrading sulfur-containing amino acids to produce volatile sulfur compounds (VSC's) such as hydrogen sulfide or methyl mercaptan that lead to bad breath or oral malodor. Inhibition of METase and Cystalysin is thus an important function for oral care agents as are inhibitory activities against key host pro-inflammatory factors including matrix metalloproteinases (MMP's), cyclooxygenases (COX) and prostaglandin (PGE2).
(§3) Where no data are reported is not an indication that the compound/active has no activity; rather that the compound was not tested for that activity.

Gingipain = assay: Inhibition of bacterial virulence factor Gingipain; assay type: biochemical, P. gingivalis; conditions: at 200 uM for compounds, 0.001% for oils/extracts
Text: as §1, §3

MMP (2, 3, 12) = assay: Inhibition of host inflammation factor MMP (2, 3, 12); assay type: biochemical; conditions: at 200 uM for compounds, 0.001% for oils/extracts
Text: as §1, §3

PGE2 = assay: Inhibition of host inflammation factor PGE2; assay type: cell-based; conditions: read-out: PGE2 % inhibition
Text: as §2, §3

[1] = tested on: oral anaerobic bacterial biofilm containing Fusobacterium nucleatum; assay: In vitro biofilm growth inhibition model (30 second exposure, MIC); assay type: cell-based; conditions: lowest concentration that completely inhibited biofilm growth following a 30 second exposure
Method: The method involves forming a bacterial biofilm in a plastic uncoated 12-well tissue culture plate. The culture material is removed from the wells and the biofilm is treated with a test solution or appropriate control usually for 30 seconds. Subsequently, the biofilm is washed twice with sterile saline and fresh medium is placed on the biofilm which is then incubated at 37° C. overnight. The next day, the culture in each well is suspended and the optical density determined to assess biofilm growth.

[2] = tested on: Total Facultative Anaerobes (TFA); assay: Plaque Chip Assay (PCA), Total Facultative Anaerobes count; assay type: cell-based, oral bacteria from whole saliva of healthy human donors; conditions: vs. water
Method: (§4) In further studies, individual essential oil compounds and blends were evaluated for germ kill efficacy against oral anaerobes. For comparison, a cetyl pyridinium chloride solution (350 ppm) and a commercially available essential oil mouthrinse (Listerine® Cool Mint with ˜0.258% essential oil level) were tested.
(§5) Aqueous solutions (comprising 1% poloxamer 407 and 15% ethanol) were prepared with the essential oil load fixed at 0.15%. […] The test solutions were used neat in this experiment. The essential oil compounds and blends were tested using the Plaque Chip Assay (PCA) method, developed in the Procter & Gamble laboratories. The PCA method measures a combination of the following parameters: antibacterial efficacy (bacteria or germ kill), biofilm dispersion efficacy/chemical removal (chemical cleaning, e.g., detergency without germ kill), biofilm prevention and/or inhibition efficacy (prevention of biofilm growth) and active substantivity (cumulative efficacy).
(§6) The PCA method uses unmodified, whole saliva (obtained from multiple healthy human donors) to grow a biofilm containing relevant oral species on the surface of hydroxyapatite (HA) discs (the ‘chip’) mounted in the cap of plastic tubes (Nunc™ Cryovial). HA chips are subjected to five one-minute treatment and re-growth cycles, designed to mimic typical oral care product usage (dentifrice, rinse, gel) over a 2½ day period. Fresh saliva is replaced after each treatment, wherein the saliva used serves both as an inoculum of relevant oral bacteria, and as a nutrient source for the growth of the biofilm. Sixteen hours after the final treatment cycle, the biofilm remaining on the chip is removed, and the number of viable bacteria contained within it are measured by standard agar plate counting on ETSA (Enriched Trypticase Soy Agar) and ETSA-NV (Enriched Trypticase Soy Agar Supplemented with Nalidixic Acid and Vancomycin) media. The number of colony forming units per unit volume (cfu/ml) is measured for Total Facultative Anaerobes (TFA) and Gram Negative Anaerobes (GNA). Results are summarized in Table 3 below reported as Log Reduction in TFA and GNA colony forming units provided by test formulations vs. control, i.e., water or base aqueous solution (comprising 1% poloxamer 407 and 15% ethanol). Reductions in TFA or GNA bacterial counts vs. control are reasonably predictive of in vivo efficacy, in particular plaque removal efficacy and breath malodor reduction. […] Particularly for blends containing 3 or more components, the relative amounts of each component can be adjusted to provide the best germ kill efficacy along with the desired flavor profile.

COX-2 = molecular target: T1, COX-2 (Homo sapiens, UniProt P35354); assay: Inhibition of host inflammation factor COX-2; assay type: biochemical; conditions: read-out: COX-2 % inhibition
T1 sequence (P35354 18-604): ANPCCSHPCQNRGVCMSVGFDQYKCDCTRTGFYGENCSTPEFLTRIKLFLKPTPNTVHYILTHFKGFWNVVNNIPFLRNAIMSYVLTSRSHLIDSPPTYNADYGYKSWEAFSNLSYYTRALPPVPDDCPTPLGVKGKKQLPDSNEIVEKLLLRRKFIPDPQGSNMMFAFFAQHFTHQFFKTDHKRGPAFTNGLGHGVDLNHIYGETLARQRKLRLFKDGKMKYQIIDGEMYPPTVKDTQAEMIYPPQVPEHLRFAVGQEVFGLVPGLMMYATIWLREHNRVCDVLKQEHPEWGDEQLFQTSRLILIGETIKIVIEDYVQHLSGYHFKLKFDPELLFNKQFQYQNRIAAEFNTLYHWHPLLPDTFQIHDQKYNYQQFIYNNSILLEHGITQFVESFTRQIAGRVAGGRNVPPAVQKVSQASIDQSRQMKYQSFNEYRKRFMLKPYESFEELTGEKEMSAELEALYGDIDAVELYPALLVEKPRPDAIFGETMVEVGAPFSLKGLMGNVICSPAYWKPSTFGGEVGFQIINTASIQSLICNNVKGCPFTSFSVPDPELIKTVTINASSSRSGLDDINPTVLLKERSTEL
Text: as §1, §3

[3] = tested on: Gram Negative Anaerobes (GNA); assay: Plaque Chip Assay (PCA), Gram Negative Anaerobes count; assay type: cell-based, oral bacteria from whole saliva of healthy human donors; conditions: vs. water
Method: as §4, §5, §6

Cystalysin = assay: Inhibition of bacterial virulence factor Cystalysin; assay type: biochemical, P. gingivalis; conditions: at 200 uM for compounds, 0.001% for oils/extracts
Text: as §1, §2, §3

COX-1 = COX-1 (Homo sapiens, UniProt P23219); assay: Inhibition of host inflammation factor COX-1; assay type: biochemical; conditions: at 200 uM for compounds, 0.001% for oils/extracts
Sequence of COX-1 (P23219 24-599): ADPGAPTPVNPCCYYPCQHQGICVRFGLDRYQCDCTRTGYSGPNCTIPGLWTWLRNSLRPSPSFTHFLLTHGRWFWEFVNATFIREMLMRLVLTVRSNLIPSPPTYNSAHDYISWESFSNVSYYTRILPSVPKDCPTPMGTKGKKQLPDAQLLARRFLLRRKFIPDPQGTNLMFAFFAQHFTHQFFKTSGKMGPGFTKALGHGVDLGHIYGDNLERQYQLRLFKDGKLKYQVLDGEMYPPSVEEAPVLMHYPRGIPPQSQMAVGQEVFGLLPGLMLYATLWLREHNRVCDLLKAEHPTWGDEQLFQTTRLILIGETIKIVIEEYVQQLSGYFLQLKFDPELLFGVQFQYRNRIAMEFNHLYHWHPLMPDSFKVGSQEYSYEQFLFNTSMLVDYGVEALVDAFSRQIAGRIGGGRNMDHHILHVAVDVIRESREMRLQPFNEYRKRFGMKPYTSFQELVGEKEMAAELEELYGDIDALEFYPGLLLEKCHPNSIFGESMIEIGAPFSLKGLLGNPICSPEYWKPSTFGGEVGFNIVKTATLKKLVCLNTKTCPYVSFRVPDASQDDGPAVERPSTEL

[4] = essential oil at 0.15% solution, five one-minute treatments
[5] = at 200 uM for compounds, 0.001% for oils/extracts

Sequence of METase (Q7MX71 whole entry): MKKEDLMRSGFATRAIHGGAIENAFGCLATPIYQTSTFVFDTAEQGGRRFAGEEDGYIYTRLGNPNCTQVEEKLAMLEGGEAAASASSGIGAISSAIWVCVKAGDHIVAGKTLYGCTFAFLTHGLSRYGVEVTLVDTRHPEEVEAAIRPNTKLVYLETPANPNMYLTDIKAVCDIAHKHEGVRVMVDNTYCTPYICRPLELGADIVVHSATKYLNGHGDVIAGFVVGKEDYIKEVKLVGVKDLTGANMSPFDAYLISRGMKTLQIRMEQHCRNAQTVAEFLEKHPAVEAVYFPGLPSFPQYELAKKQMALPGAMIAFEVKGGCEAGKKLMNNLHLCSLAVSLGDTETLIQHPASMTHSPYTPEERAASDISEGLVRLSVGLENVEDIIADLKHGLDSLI

Row | Compound | inhibition at 200 µM (METase) | Gingipain % inhibition (Gingipain) | MMP (2, 3, 12) % inhibition (MMP (2, 3, 12)) | inhibition at 200 µM (PGE2) | Total Oil Level Inhibiting Biofilm Growth (MIC), single component [1] | Log Reduction in cfu/ml vs Control, TFA [2, 4] | inhibition at 200 µM (COX-2) | Log Reduction in cfu/ml vs Control, GNA [3, 4] | Cystalysin % inhibition (Cystalysin) | Log Reduction in cfu/ml vs Control, TFA ([2]; 350 ppm solution) | Log Reduction in cfu/ml vs Control, GNA ([3]; 350 ppm solution) | inhibition at 200 µM (PGE2; [5]) | inhibition at 200 µM (COX-1) | inhibition at 200 µM (COX-2; [5])
1 | Cc1ccc(C(C)C)cc1O [Carvacrol] | < 25% | + (% inhibition <25% at 200 uM for compounds, 0.001% for oils/extracts) | + (% inhibition <25% at 200 uM for compounds, 0.001% for oils/extracts) | > 75% | 0.1% | 0.08 log cfu/ml | > 25% | 0.42 log cfu/ml | + (% inhibition <25% at 200 uM for compounds, 0.001% for oils/extracts) | – | – | – | – | –
2 | CCCCCCCCCCCCCCCC[n+]1ccccc1 [Cetylpyridinium Chloride (CPC), Cetylpyridinium Chloride, reference compound] | – | – | – | – | – | – | – | – | – | 1.45 log cfu/ml | 1.31 log cfu/ml | – | – | –
3 | CC(C)=CCCC(C)=CC=O [Citral] | < 25% | + (% inhibition <25% at 200 uM for compounds, 0.001% for oils/extracts) | + (% inhibition <25% at 200 uM for compounds, 0.001% for oils/extracts) | – | 0.2% | 0.33 log cfu/ml | – | 0.72 log cfu/ml | – | – | – | > 50% | – | –
4 | CC12CCC(CC1)C(C)(C)O2 [Eucalyptol] | < 25% | + (% inhibition <25% at 200 uM for compounds, 0.001% for oils/extracts) | + (% inhibition <25% at 200 uM for compounds, 0.001% for oils/extracts) | – | 0.1% | −0.06 log cfu/ml | – | 0.38 log cfu/ml | + (% inhibition <25% at 200 uM for compounds, 0.001% for oils/extracts) | – | – | > 75% | – | –
5 | C=CCc1ccc(O)c(OC)c1 [Eugenol] | < 25% | + (% inhibition <25% at 200 uM for compounds, 0.001% for oils/extracts) | + (% inhibition <25% at 200 uM for compounds, 0.001% for oils/extracts) | > 75% | 0.2% | 0.09 log cfu/ml | > 25% | 0.70 log cfu/ml | + (% inhibition <25% at 200 uM for compounds, 0.001% for oils/extracts) | – | – | – | – | –
6 | CC(C)=CCC/C(C)=C/CO [Geraniol] | < 25% | – | + (% inhibition <25% at 200 uM for compounds, 0.001% for oils/extracts) | – | 0.1% | 0.47 log cfu/ml | – | 0.60 log cfu/ml | + (% inhibition <25% at 200 uM for compounds, 0.001% for oils/extracts) | – | – | > 25% | > 50% | > 25%
7 | Cc1ccc(C(C)C)c(O)c1 [Thymol, reference compound] | – | – | – | – | 0.1% | – | – | – | – | – | – | – | – | –
